Patent US10023587B2, “Oxabicycloheptanes and oxabicycloheptenes, their preparation and use” (LIXTE BIOTECHNOLOGY, INC., priority 2007, dated 2018)
In brackets after ≈: the same amount, converted by molar mass. Entries after “also recorded” stand apart in the source; their conditions may differ. Where two headings read alike, the source gives them in different places.

Assays:
[1] = system: GBM cell line U373; experiment: Inhibition of growth of GBM cell line U373 by single agents (cell counts); assay type: cell-based, human; conditions: for Inhibition of growth of cell line U373 (in words): single agent, 7 days
From the text: From graphic plots of the glioblastoma multiforme GBM cell line U373 (available from the National Institute of Neurological Disorders and Stroke Molecular Pathogenesis Unit, Building 10, Room 5 D37, National Institutes of Health, 900 Rockville Pike, Bethesda, Md., 20892) as a function of exposure to different doses of drug for 7 days, the concentration of each compound that inhibited brain tumor cell proliferation by 50% (IC50) was estimated.
To identify novel therapeutic targets for the treatment of glioblastoma multiforme (GBM), cantharidin analogues were evaluated for their ability to inhibit growth of glioblastoma multiforme cells. Specifically, GBM cell line U373 was used in evaluations.
The total number of cells is counted in the triplicate cultures at each dose and in controls after 7 days and the average number of cells and the standard deviation is determined.
The amount of inhibition of GBM cell growth is expressed as the proportion of the number of cells in the experimental dishes compared to the number of cells in control dishes containing only the drug vehicle and culture medium. The average percent of control is plotted and bracketed by one standard deviation calculated from the triplicate measurements.
For all cell culture experiments, cells are allowed to grow in the presence or absence of different concentrations of drug or in the presence of the vehicle used to dissolve the drug, PBS for compound 100 and DMSO for compound 102. Cell counts are done in triplicate on day 3 and day 7 and inhibition of growth is expressed as a percentage of the number of cells present in the experimental well divided by the number of cells in a control well.

[2] = system: DAOY cells; experiment: DAOY xenograft tumor growth in SCID mice; assay type: in vivo; conditions: subcutaneous in SCID mice, ip daily for 20 days (FIG. 18)
Procedure: For in vivo experiments, subcutaneously implanted tumor cells are allowed to grow over 7 days to a size of 5-7 mm. On day 7, drug administration is begun ip daily for 20 days. The maximum perpendicular diameters of the tumor masses are measured every 2 to 5 days. On the 21st day after initiation of treatment, the animals are sacrificed and dissected free of the subcutaneous tissues and measured.

[3] = system: HT-29 cells; experiment: CellTiter-Glo assay, HT-29; assay type: cell-based; conditions: Homo sapiens; HT-29 Colon, 72 hr; read-out: IC50 (50% Inhibition of Proliferation)
Procedure: (§1) MDA-MB-231, HT-29, NCI-H460, NCI-H522, NCI-H69, GXF-209, HepG2, OVAR-3, PANC-1, DU-145, LNCAP, HL-60, K-562, and MOLT-4 cell lines were either obtained from the American Type Culture Collection (ATCC; Manassas, Va.), or from the National Cancer Institute (NCI; Frederick, Md.). RPMI-1640 media, L-glutamine dipeptide (HyQ SG-200), and HEPES were obtained from Hyclone (Logan, Utah).
(§2) All cell lines were routinely cultured twice weekly in RPMI-1640 medium supplemented with 2 mM L-glutamine dipeptide, 10 mM HEPES, and 10% FBS.
(§3) The adherent cell lines MDA-MB-231, HT-29, NCI-H460, NCI-H522, GXF-209, HepG2, OVAR-3, PANC-1, DU-145, and LNCAP cells were each seeded into two 96-well plates at 2,500 cells per well in a total volume of 50 uL and incubated in a 37° C. humidified 5% CO2 cell culture incubator overnight. The suspension cell lines NCI-H69, HL-60, K-562, and MOLT-4 were each seeded into two 96-well plates at 10,000 cell per well in a total volume of 50 uL and incubated in a 37° C. humidified 5% CO2 incubator overnight.
(§4) This was followed by making 2× stocks of the final concentrations required in RPMI-1640 medium. […]
(§5) Briefly, plates were removed from the incubator and placed on the bench at room temperatures for 30 minutes. […] Luminescence was then recorded using the PerkinElmer Microbeta scintillation and luminescence counter (Trilux).

[4] = system: OVCAR-3 cells; experiment: CellTiter-Glo assay, OVCAR-3; assay type: cell-based; conditions: Homo sapiens; OVCAR-3 Ovary adenoca, 72 hr; read-out: IC50 (50% Inhibition of Proliferation)
Procedure: as §1, §2, §3, §4, §5

[5] = system: DU-145 cells; experiment: CellTiter-Glo assay, DU-145; assay type: cell-based; conditions: Homo sapiens; DU-145 Prostate, 72 hr; read-out: IC50 (50% Inhibition of Proliferation)
Procedure: as §1, §2, §3, §4, §5

[6] = system: LNCAP cells; experiment: CellTiter-Glo assay, LNCAP; assay type: cell-based; conditions: Homo sapiens; LNCAP Prostate, 72 hr; read-out: IC50 (50% Inhibition of Proliferation)
Procedure: as §1, §2, §3, §4, §5

[7] = system: T. rubrum; experiment: Antifungal susceptibility testing (broth dilution), T. rubrum; assay type: cell-based, Trichophyton rubrum; conditions: for MIC: Trichophyton rubrum, read-out: minimum inhibitory concentration (MIC); for minimum inhibitory concentration (MIC): isolate 07-2055
Procedure: Anti-fungal testing was completed with a common lot for compounds 100 and 102.
A 10 mg portion of each powder was weighed out and added to 1 ml of sterile distilled water for compound 100 and DMSO for compound 102. The resulting concentration of […] was diluted to a working concentration of 640 μg/ml for each compound. All subsequent dilutions were also made using the respective diluents. Final testing concentrations ranged from 0.125-64 μg/ml.
A total of 23 isolates were tested to include 3 Candida albicans, 3 Candida glabrata, 3 Cryptococcus neoformans, 3 Aspergillus fumigatus, 3 Rhizopus oryzae, 3, Fusarium solani, 3 Pseudallescheria boydii, and 2 […] rubrum. All isolates were clinical isolates submitted to the Fungus Testing Laboratory for evaluation. Antifungal susceptibility testing was accomplished according to the methods outlined in the National Committee for Clinical Laboratory Standards, M-27A2, Reference Method for Broth Dilution Antifungal Susceptibility Testing of Yeasts; Approved Standard, and M38-A “Reference Method for Broth Dilution Antifungal Susceptibility Testing of Conidium-Forming Filamentous Fungi; Approved Standard”. This includes testing in RPMI-1640 with glutamine and without bicarbonate, an inoculum size of 0.5-2.5×10^3 for yeasts or 1-5×10^4 for moulds, and incubation at 35° C. for 24 and 48 hours.

Structure (SMILES)	Inhibition of growth of cell line U373 (in words) [1]	Effect on DAOY xenograft tumor growth (in words) [2]	IC50 [3] [µM]	IC50 [4] [µM]	IC50 [5] [µM]	IC50 [6] [µM]	MIC ([7]; isolate 07-1743, 24 Hours) [µg/mL]	MIC ([7]; isolate 07-1743, 48 Hours) [µg/mL]	minimum inhibitory concentration (MIC) ([7]; 24 Hours) [µg/mL]	minimum inhibitory concentration (MIC) ([7]; 48 Hours) [µg/mL]	Antifungal activity against T. rubrum (in words) ([7]; testing concentrations 0.125-64 μg/ml)	Inhibitory value against U373, comparison of the two compounds ([1]; 10 μM, seven days (FIG. 8))	IC50 ([1]; Homo sapiens, U373 MG, 168 h, U373, exposure for 7 days, estimated from graphic plots (FIG. 1), read-out: concentration that inhibited brain tumor cell proliferation by 50% (IC50)) [µM]	Inhibition of growth of cell line U373 (in words) ([1]; listed as compound 100)	MIC ([7]; 24 h) [µg/mL]	MIC ([7]; 48 h) [µg/mL]
CC(C)(C)OC(=O)N1CCN(C(=O)C2C(C(=O)O)[C@H]3CC[C@@H]2O3)CC1 (stereo in doubt) [Compound 102, 4-(3-Carboxy-7oxa-bicyclo[2.2.1]heptane-2-carbonyl)piperazine-1-carboxylic acid tert-butyl ester]	highly potent	inhibit the proliferation	3.6	5.1	13	0.48	2 (≈ 5.64 µM)	2 (≈ 5.64 µM)	2 (≈ 5.64 µM)	2 (≈ 5.64 µM)	significant activity	–	–	–	–	–
CN1CCN(C(=O)C2C(C(=O)O)[C@H]3CC[C@@H]2O3)CC1 (stereo partly drawn) [Compound 100, Endothall 4-Methylpiperazine Monoamide]	potent inhibitor of GBMs in vitro; also recorded: Increasing dosages demonstrate a greater inhibition of growth; also recorded: modest inhibition of growth	inhibit the proliferation	5.3	2.9	16.4	1.5	–	–	>64	>64	–	identical inhibitory values	3	inhibitory activities at low micromolar concentrations; also recorded: dose dependent inhibition	> 64	> 64
